This is an account of results in patent US20230391739A1, “ARYL DERIVATIVES FOR TREATING TRPM3 MEDIATED DISORDERS” (Katholieke Universiteit Leuven, priority 2020, published 2023).

The experiment addresses T1, mouse TRPM3α2 (mTRPM3) ion channel (Mus musculus, UniProt J9SQF3).
T1 construct: expressed in transfected cells; host or cells: flip-in HEK293
In words: TRPM3 ion channel driven Ca2+ uptake, Fluo-4 AM assay, PS-stimulated (mTRPM3). The experiment is classed as cell-based. Conditions: TRPM3 overexpressing flip-in HEK293 cells stimulated with Pregnenolone sulfate (PS) 50 μM, activity ranges A, B, C. The protocol: Monitoring the TRPM3 Ion Channel Driven Ca^2+ Uptake.
In order to monitor the inhibition of the mouse TRPM3α2 (mTRPM3) ion channel by the compounds of the invention, a cellular system making use of an mTRPM3alpha2 or hTRPM3 overexpressing cell line (flip-in HEK293) was used. The TRPM3 channel was stimulated/opened with Pregnenolone sulfate (PS) (50 μM) which results in Ca^2+ influx.
For mTRPM3, the intracellular Ca^2+ was measured with a Calcium responsive dye, Fluor-4 AM ester (Invitrogen). Cells were cultured until a confluence of 80-90%, washed with Versene (Invitrogen) and detached from the surface by a short incubation with 0.05% Trypsin (Invitrogen). The trypsination process was stopped by the addition of complete cell culture medium (DMEM, glutamax, 10% FCS, NEAA, Pen-Strep). Cells were collected and resuspended in Krebs buffer without Calcium at RT.
Prior the cell seeding (±2000 cells/well into a black, 384 well plate (Greiner)) the diluted compound was added in the assay plate, together with the PS dissolved in Krebs buffer containing Calcium. […] Directly after cell addition the plates were read on an Envision fluorescence reader (Perkin Elmer) by an Excitation of 485 nm and emission at 535 nm.
Channel inhibition was calculated compared to a non-PS stimulated control versus a condition stimulated with PS (50 μM) with vehicle. The ability of the compounds of the invention to inhibit this activity was determined as: Percentage inhibition=[1−((RFU determined for sample with test compound present−RFU determined for sample with positive control inhibitor) divided by (RFU determined in the presence of vehicle−RFU determined for sample with positive control inhibitor))]*100.
The activities of the Example compounds tested are depicted in the table below.

T1 sequence (J9SQF3 1-1709 isoform J9SQF3-12): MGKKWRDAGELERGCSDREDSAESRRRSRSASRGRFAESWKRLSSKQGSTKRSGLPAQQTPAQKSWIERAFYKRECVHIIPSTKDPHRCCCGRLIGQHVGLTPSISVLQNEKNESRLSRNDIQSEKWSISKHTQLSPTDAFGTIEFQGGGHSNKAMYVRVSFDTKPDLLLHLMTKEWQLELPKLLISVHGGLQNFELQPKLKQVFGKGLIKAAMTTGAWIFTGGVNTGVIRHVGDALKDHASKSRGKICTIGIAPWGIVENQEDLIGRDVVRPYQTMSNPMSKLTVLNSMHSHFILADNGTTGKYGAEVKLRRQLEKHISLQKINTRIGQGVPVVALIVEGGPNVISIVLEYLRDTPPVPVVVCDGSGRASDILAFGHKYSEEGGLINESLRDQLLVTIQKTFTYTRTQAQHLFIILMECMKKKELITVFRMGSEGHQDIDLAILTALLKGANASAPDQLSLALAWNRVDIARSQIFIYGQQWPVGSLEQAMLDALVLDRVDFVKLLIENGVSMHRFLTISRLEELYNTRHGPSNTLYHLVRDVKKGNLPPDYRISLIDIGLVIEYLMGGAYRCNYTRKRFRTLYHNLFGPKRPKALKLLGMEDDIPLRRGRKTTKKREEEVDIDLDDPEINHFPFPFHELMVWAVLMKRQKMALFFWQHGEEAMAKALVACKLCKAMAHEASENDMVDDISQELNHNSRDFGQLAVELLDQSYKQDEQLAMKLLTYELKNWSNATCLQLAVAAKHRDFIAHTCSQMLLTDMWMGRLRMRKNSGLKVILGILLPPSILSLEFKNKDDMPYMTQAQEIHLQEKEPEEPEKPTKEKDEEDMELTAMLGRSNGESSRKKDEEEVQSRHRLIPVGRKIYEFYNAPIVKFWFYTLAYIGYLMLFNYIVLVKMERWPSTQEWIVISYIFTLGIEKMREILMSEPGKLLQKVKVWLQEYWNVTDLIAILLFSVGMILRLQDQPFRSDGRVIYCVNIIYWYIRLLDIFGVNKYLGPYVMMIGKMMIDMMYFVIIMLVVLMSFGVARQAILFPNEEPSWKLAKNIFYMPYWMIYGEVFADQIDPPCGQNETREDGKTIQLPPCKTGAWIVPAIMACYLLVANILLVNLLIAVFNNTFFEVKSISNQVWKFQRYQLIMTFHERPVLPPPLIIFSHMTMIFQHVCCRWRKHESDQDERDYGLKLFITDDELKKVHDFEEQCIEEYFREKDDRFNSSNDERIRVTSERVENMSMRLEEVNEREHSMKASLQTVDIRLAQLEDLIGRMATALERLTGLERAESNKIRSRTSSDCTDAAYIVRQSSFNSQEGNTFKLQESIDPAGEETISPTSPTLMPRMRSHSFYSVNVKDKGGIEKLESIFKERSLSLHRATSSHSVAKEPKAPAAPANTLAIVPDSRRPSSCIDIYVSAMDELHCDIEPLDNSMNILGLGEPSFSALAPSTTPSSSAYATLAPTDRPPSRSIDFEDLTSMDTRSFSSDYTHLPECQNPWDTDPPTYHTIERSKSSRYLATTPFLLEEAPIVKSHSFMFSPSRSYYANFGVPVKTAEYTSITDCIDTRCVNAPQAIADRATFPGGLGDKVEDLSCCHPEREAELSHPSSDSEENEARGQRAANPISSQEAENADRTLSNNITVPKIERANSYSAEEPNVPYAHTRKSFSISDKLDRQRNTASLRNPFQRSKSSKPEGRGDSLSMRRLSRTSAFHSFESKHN

As a reminder, the IC50 is the concentration that gives 50% inhibition. A higher IC50 goes with lower potency. In the case of `Cc1oc2ccc(OCc3ccccc3)cc2c1C(=O)NC1CNCC1F` (racemic) [Cpd 093, rac-5-(benzyloxy)-N-(trans-4-fluoropyrrolidin-3-yl)-2-methylbenzofuran-3-carboxamide], the IC50 was < 1 µM.
In the case of `Cc1oc2ccc(OCc3ccccc3)cc2c1C(=O)NC1CNCC1F` (racemic) [Cpd 094, rac-5-(benzyloxy)-N-(cis-4-fluoropyrrolidin-3-yl)-2-methylbenzofuran-3-carboxamide], the IC50 is < 1 µM.
As to `Cc1oc2ccc(OCc3ccccc3)cc2c1C(=O)NC1CCNC(C)C1` (racemic) [Cpd 114, rac-5-(benzyloxy)-2-methyl-N-(trans-2-methylpiperidin-4-yl)benzofuran-3-carboxamide], the IC50 was < 1 µM.
As to `Cc1oc2ccc(OCc3ccccc3)cc2c1C(=O)NC1CCNC(C)C1` (racemic) [Cpd 115, rac-5-(benzyloxy)-2-methyl-N-(cis-2-methylpiperidin-4-yl)benzofuran-3-carboxamide], the IC50 was < 1 µM.
As for `Cc1oc2ccc(OC(C)c3ccccc3C(F)(F)F)cc2c1C(=O)N[C@H]1CCNC1` (mixture of isomers) [Cpd 220, rac-2-methyl-N—((R)-pyrrolidin-3-yl)-5-(1-(2-(trifluoromethyl)phenyl)ethoxy)benzofuran-3-carboxamide], the IC50 was < 1 µM.
For the compound `CCC(Oc1ccc2oc(C)c(C(=O)N[C@H]3CCNC3)c2c1)c1ccccc1C(F)(F)F` (mixture of isomers) [Cpd 231, rac-2-methyl-N—((R)-pyrrolidin-3-yl)-5-(1-(2-(trifluoromethyl)phenyl)propoxy)benzofuran-3-carboxamide], the IC50 is < 1 µM.
As to `Cc1oc2ccc(OCc3ccccc3)cc2c1C(=O)N[C@@H]1CCN(C(=O)OC(C)(C)C)[C@@H](C)C1` (racemic) [Cpd 251, tert-butyl trans-4-(5-(benzyloxy)-2-methylbenzofuran-3-carboxamido)-2-methylpiperidine-1-carboxylate], the IC50 is < 1 µM.
Then `Cc1oc2ccc(OC(C)c3ccccc3C(F)(F)F)cc2c1C(=O)N[C@H]1CCN(C(=O)OC(C)(C)C)C1` (mixture of isomers) [Cpd 267, rac-tert-butyl (3R)-3-(2-methyl-5-(1-(2-(trifluoromethyl)phenyl)ethoxy)benzofuran-3-carboxamido)pyrrolidine-1-carboxylate], with > 20 µM.
In the case of `Cc1oc2ccc(OCc3ccccc3F)cc2c1C(=O)N[C@@H]1COC[C@H]1O` (relative stereo) [Cpd 330-En 2], the IC50 is < 1 µM.
As to `Cc1oc2ccc(OCc3ccccc3)cc2c1C(=O)NC1CNCCC1F` (single isomer, unassigned) [Cpd 130-Dia 1], the IC50 is < 1 µM.
The figure for `Cc1oc2ccc(OCc3ccccc3)cc2c1C(=O)NC1CNCCC1F` (single isomer, unassigned) [Cpd 130-Dia 2] is < 1 µM; for `Cc1oc2ccc(OCc3ccccc3)cc2c1C(=O)NC1CCN2CCCC12` (single isomer, unassigned) [Cpd 144-Dia 1, 5-(benzyloxy)-N-(hexahydro-1H-pyrrolizin-1-yl)-2-methylbenzofuran-3-carboxamide] it is < 1 µM; for `Cc1oc2ccc(OCc3ccccc3)cc2c1C(=O)NC1CCN2CCCC12` (single isomer, unassigned) [Cpd 144-Dia 2, 5-(benzyloxy)-N-(hexahydro-1H-pyrrolizin-1-yl)-2-methylbenzofuran-3-carboxamide] it is < 1 µM.
On to `Cc1oc2ccc(OCc3ccccc3)cc2c1C(=O)NC1CN(C(=O)OC(C)(C)C)CCC1F` (single isomer, unassigned) [Cpd 255-Dia 1, tert-butyl 3-(5-(benzyloxy)-2-methylbenzofuran-3-carboxamido)-4-fluoropiperidine-1-carboxylate], for which the IC50 is < 1 µM.
Take `Cc1oc2ccc(OCc3ccccc3)c(C#N)c2c1C(=O)NC1CNCC1(F)F` (single isomer, unassigned) [Cpd 297-En 1, 5-(benzyloxy)-4-cyano-N-(4,4-difluoropyrrolidin-3-yl)-2-methylbenzofuran-3-carboxamide]: the IC50 is < 1 µM.
Consider `Cc1oc2ccc(OCc3ccccc3)c(C#N)c2c1C(=O)NC1CNCC1(F)F` (single isomer, unassigned) [Cpd 297-En 2, 5-(benzyloxy)-4-cyano-N-(4,4-difluoropyrrolidin-3-yl)-2-methylbenzofuran-3-carboxamide], for which the IC50 fell in the range of 1 to 20 µM.
As for `Cc1oc2ccc(OCc3ccccc3)c(F)c2c1C(=O)NC1CNCC1(F)F` (single isomer, unassigned) [Cpd 298-En 1, 5-(benzyloxy)-N-(4,4-difluoropyrrolidin-3-yl)-4-fluoro-2-methylbenzofuran-3-carboxamide], the IC50 is < 1 µM.
Compound `Cc1oc2ccc(OCc3ccccc3)c(F)c2c1C(=O)NC1CNCC1(F)F` (single isomer, unassigned) [Cpd 298-En 2, 5-(benzyloxy)-N-(4,4-difluoropyrrolidin-3-yl)-4-fluoro-2-methylbenzofuran-3-carboxamide] displayed an IC50 of 1 to 20 µM.
`Cc1oc2ccc(OCc3ccccc3)c(C)c2c1C(=O)NC1CNCC1(F)F` (single isomer, unassigned) [Cpd 299-En 1, 5-(benzyloxy)-N-(4,4-difluoropyrrolidin-3-yl)-2,4-dimethylbenzofuran-3-carboxamide]: the IC50 is < 1 µM.
Then `Cc1oc2ccc(OCc3ccccc3)c(C)c2c1C(=O)NC1CNCC1(F)F` (single isomer, unassigned) [Cpd 299-En 2, 5-(benzyloxy)-N-(4,4-difluoropyrrolidin-3-yl)-2,4-dimethylbenzofuran-3-carboxamide], with < 1 µM; and `Cc1oc2cc(Cl)c(OCc3ccccc3)cc2c1C(=O)NC1CNCC1(F)F` (single isomer, unassigned) [Cpd 300-En 1, 5-(benzyloxy)-6-chloro-N-(4,4-difluoropyrrolidin-3-yl)-2-methylbenzofuran-3-carboxamide], with 1 to 20 µM.
For `Cc1oc2cc(Cl)c(OCc3ccccc3)cc2c1C(=O)NC1CNCC1(F)F` (single isomer, unassigned) [Cpd 300-En 2, 5-(benzyloxy)-6-chloro-N-(4,4-difluoropyrrolidin-3-yl)-2-methylbenzofuran-3-carboxamide], the IC50 is > 20 µM.
Then `Cc1oc2cc(C#N)c(OCc3ccccc3)cc2c1C(=O)NC1CNCC1(F)F` (single isomer, unassigned) [Cpd 301-En 1, 5-(benzyloxy)-6-cyano-N-(4,4-difluoropyrrolidin-3-yl)-2-methylbenzofuran-3-carboxamide], with > 20 µM; and `Cc1oc2cc(C#N)c(OCc3ccccc3)cc2c1C(=O)NC1CNCC1(F)F` (single isomer, unassigned) [Cpd 301-En 2, 5-(benzyloxy)-6-cyano-N-(4,4-difluoropyrrolidin-3-yl)-2-methylbenzofuran-3-carboxamide], with > 20 µM.
Take `Cc1oc2cc(F)c(OCc3ccccc3)cc2c1C(=O)NC1CNCC1(F)F` (single isomer, unassigned) [Cpd 302-En 1, 5-(benzyloxy)-N-(4,4-difluoropyrrolidin-3-yl)-6-fluoro-2-methylbenzofuran-3-carboxamide]: the half-maximal inhibitory concentration (IC50) is < 1 µM.
For the compound `Cc1oc2cc(F)c(OCc3ccccc3)cc2c1C(=O)NC1CNCC1(F)F` (single isomer, unassigned) [Cpd 302-En 2, 5-(benzyloxy)-N-(4,4-difluoropyrrolidin-3-yl)-6-fluoro-2-methylbenzofuran-3-carboxamide], the IC50 is < 1 µM.
